Data: patent US20260022142A1, “MACROCYCLIC IMMUNOMODULATORS” (Bristol-Myers Squibb Company, priority 2022, published 2026)
pIC50: −log10 of the molar value. Numbered stars: 1 amine (or outer) side, 2 acyl side, 3 side chain; on linkers, the order of the positions; unused ones are H or OH. Bridge positions count the residues as written; N and C are the ends. Square brackets hold non-standard residues; d marks the D form. Peptide text beside a SMILES is read from it. * marks the point of attachment. ξ: configuration not given here. Phe(4-COOH) = N[C@@H](Cc1ccc(C(=O)O)cc1)C(=O)O; Bip = N[C@@H](Cc1ccc(-c2ccccc2)cc1)C(=O)O; Phe(3-Me) = Cc1cccc(C[C@H](N)C(=O)O)c1; γGlu = O=C(O)[C@H](CCC(=O)[*:2])N[*:1]; NH(CH2)12COOH = O=C(O)CCCCCCCCCCCCN*; Val(3-OH) = CC(C)(O)[C@H](N)C(=O)O; Cha = N[C@@H](CC1CCCCC1)C(=O)O; Cit = NC(=O)NCCC[C@H](N)C(=O)O; Ile(3ξ) = CCC(C)[C@H](N)C(=O)O; aThr = C[C@H](O)[C@H](N)C(=O)O; Thr(3ξ) = CC(O)[C@H](N)C(=O)O; Carboxymethyl = O=C(O)C*; Orn = NCCC[C@H](N)C(=O)O; Aun = NCCCCCCCCCCC(=O)O; Dab = NCC[C@H](N)C(=O)O; Dap = NC[C@H](N)C(=O)O; AEEA = NCCOCCOCC(=O)O

molecular target: T1, PD-1/PD-L1 interaction (PE-labeled human PD-L1-Ig binding to Jurkat cell line over-expressing human PD-1) (Homo sapiens, UniProt Q15116); experiment: Jurkat-PD-1 Cell Binding High-Content Screening Assay (CBA); format: cell-based; conditions: Jurkat cell line over-expressing human PD-1; PE-labeled PD-L1-Ig 20 nM final; read-out: Jurkat hPD1-PDL1 IC50
T1 construct: expressed in transfected cells; host or cells: Jurkat
T1 sequence (Q15116 25-288): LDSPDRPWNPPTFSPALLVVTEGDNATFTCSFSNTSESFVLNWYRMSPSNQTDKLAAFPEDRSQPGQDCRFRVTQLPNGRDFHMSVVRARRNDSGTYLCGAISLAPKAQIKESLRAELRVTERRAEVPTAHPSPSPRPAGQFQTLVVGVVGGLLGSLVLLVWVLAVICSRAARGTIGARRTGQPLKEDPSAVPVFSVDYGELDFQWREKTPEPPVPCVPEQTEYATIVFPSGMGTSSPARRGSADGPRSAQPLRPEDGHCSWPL
Method in brief: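 Jurkat cells stably over-expressing human PD-1 were seeded in DMEM with 10% fetal calf serum and pre-incubated with compound for 2 h at 37° C. PE-labeled human PD-L1-Ig was then added at 20 nM final for 1 hour, after which cells were fixed with paraformaldehyde, Hoechst-stained and imaged by high-content microscopy.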

Row | pIC50 | Structure (SMILES)
1 | 8.11 | Cc1cccc(C[C@@H]2NC(=O)[C@H](CC(=O)O)NC(=O)[C@H](Cc3ccc(OCC(=O)O)cc3)NC(=O)[C@H](CN)NC(=O)CSC[C@@H](C(=O)N[C@@H](CCN)C(=O)NCCCCCCCCCCC(=O)O)NC(=O)[C@H](CCC(N)=O)NC(=O)[C@H](C(C)C)NC(=O)[C@H](CC3CCCCC3)NC(=O)[C@H](CCN)NC(=O)[C@@H](CC(C)C)NC(=O)[C@H](CCCN)NC(=O)[C@H](Cc3ccc(O)cc3)NC(=O)[C@H](Cc3ccc(-c4ccccc4)cc3)NC(=O)[C@H](Cc3ccc(O)cc3)NC2=O)c1 [Compound 2713] ({CH2CO}-[Dap]Y(Carboxymethyl)D[Phe(3-Me)]Y[Bip]Y[Orn][dL][Dab][Cha]VQC[Dab][Aun]-OH; thioether N-14)
2 | 6.99 | CC(C)C[C@H]1NC(=O)[C@H](CCCN)NC(=O)[C@H](Cc2ccc(O)cc2)NC(=O)[C@H](Cc2ccc(-c3ccccc3)cc2)NC(=O)[C@H](Cc2ccc(OCC(=O)O)cc2)NC(=O)[C@H](Cc2ccc(O)cc2)NC(=O)[C@H](CC(=O)O)NC(=O)[C@H](Cc2ccc(OCC(=O)O)cc2)NC(=O)[C@H](CN)NC(=O)CSC[C@@H](C(=O)N[C@@H](CCN)C(=O)NCCOCCOCC(=O)NCCCCCCCCCCC(=O)O)NC(=O)[C@H](CCCN)NC(=O)[C@H](C(C)C)NC(=O)[C@H](CC2CCCCC2)NC(=O)[C@H](CCN)NC1=O [Compound 1311] ({CH2CO}-[Dap]Y(Carboxymethyl)DYY(Carboxymethyl)[Bip]Y[Orn][dL][Dab][Cha]V[Orn]C[Dab][AEEA][Aun]-OH; thioether N-14)
3 | 7.66 | Cc1cccc(C[C@@H]2NC(=O)[C@H](CC(=O)O)NC(=O)[C@H](Cc3ccc(OCC(=O)O)cc3)NC(=O)[C@H](CCCNC(=N)N)NC(=O)CSC[C@@H](C(=O)N[C@H](CC(N)=O)C(=O)NCCCCCCCCCCC(=O)O)NC(=O)[C@H](C(C)O)NC(=O)[C@H](C(C)C)NC(=O)[C@H](CC3CCCCC3)NC(=O)[C@H](CCN)NC(=O)[C@@H](CC(C)C)NC(=O)[C@H](CCCN)NC(=O)[C@H](Cc3ccc(OCC(=O)O)cc3)NC(=O)[C@H](Cc3ccc(-c4ccccc4)cc3)NC(=O)[C@H](Cc3ccc(OCC(=O)O)cc3)NC2=O)c1 (stereo partly drawn) [Compound 3489] ({CH2CO}-RY(Carboxymethyl)D[Phe(3-Me)]Y(Carboxymethyl)[Bip]Y(Carboxymethyl)[Orn][dL][Dab][Cha]V[Thr(3ξ)]C[dN][Aun]-OH; thioether N-14)
4 | 8.36 | Cc1cccc(C[C@@H]2NC(=O)[C@H](CC(=O)O)NC(=O)[C@H](Cc3ccc(OCC(=O)O)cc3)NC(=O)[C@H](CCCNC(=N)N)NC(=O)CSC[C@@H](C(=O)N[C@H](CC(N)=O)C(=O)NCCCCCCCCCCC(=O)O)NC(=O)[C@H](CCCN)NC(=O)[C@H](C(C)C)NC(=O)[C@H](CC3CCCCC3)NC(=O)[C@H](CCN)NC(=O)[C@@H](CC(C)C)NC(=O)[C@H](CCCN)NC(=O)[C@H](CCCNC(N)=O)NC(=O)[C@H](Cc3ccc(-c4ccccc4)cc3)NC(=O)[C@H](C(C)C)NC2=O)c1 [Compound 3311] ({CH2CO}-RY(Carboxymethyl)D[Phe(3-Me)]V[Bip][Cit][Orn][dL][Dab][Cha]V[Orn]C[dN][Aun]-OH; thioether N-14)
5 | 8.19 | Cc1cccc(C[C@@H]2NC(=O)[C@H](CC(=O)O)NC(=O)[C@H](Cc3ccc(OCC(=O)O)cc3)NC(=O)[C@H](CCN)NC(=O)CSC[C@@H](C(=O)N[C@@H](CCN)C(=O)NCCOCCOCC(=O)N[C@@H](CC(=O)O)C(=O)NCCOCCOCC(=O)N[C@@H](CCC(=O)NCC(=O)NCCCCCCCCCCCCC(=O)O)C(=O)O)NC(=O)[C@H](Cc3cnc[nH]3)NC(=O)[C@H](C(C)(C)O)NC(=O)[C@H](CC3CCCCC3)NC(=O)[C@H](CCN)NC(=O)[C@@H](CC(C)C)NC(=O)[C@H](CCCN)NC(=O)[C@H](Cc3ccc(C(=O)O)cc3)NC(=O)[C@H](Cc3ccc(-c4ccccc4)cc3)NC(=O)[C@H](Cc3ccc(C(=O)O)cc3)NC2=O)c1 [Compound 1285] ({CH2CO}-[Dab]Y(Carboxymethyl)D[Phe(3-Me)][Phe(4-COOH)][Bip][Phe(4-COOH)][Orn][dL][Dab][Cha][Val(3-OH)]HC[Dab][AEEA]D[AEEA][γGlu]G-{NH(CH2)12COOH}; thioether N-14)
6 | 7.96 | Cc1cccc(C[C@@H]2NC(=O)[C@H](CC(=O)O)NC(=O)[C@H](Cc3ccc(OCC(=O)O)cc3)NC(=O)[C@H](CCN)NC(=O)CSC[C@@H](C(=O)N[C@@H](CCN)C(=O)NCCCCCCCCCCC(=O)O)NC(=O)[C@H]([C@@H](C)O)NC(=O)[C@H](C(C)C)NC(=O)[C@H](CC3CCCCC3)NC(=O)[C@H](CCN)NC(=O)[C@@H](CC(C)C)NC(=O)[C@H](CCCN)NC(=O)[C@H](CCCNC(N)=O)NC(=O)[C@H](Cc3ccc(-c4ccccc4)cc3)NC(=O)[C@H](C(C)C)NC2=O)c1 [Compound 2821] ({CH2CO}-[Dab]Y(Carboxymethyl)D[Phe(3-Me)]V[Bip][Cit][Orn][dL][Dab][Cha]VTC[Dab][Aun]-OH; thioether N-14)
7 | 7.95 | Cc1cccc(C[C@@H]2NC(=O)[C@H](CC(=O)O)NC(=O)[C@H](Cc3ccc(OCC(=O)O)cc3)NC(=O)[C@H](CN)NC(=O)CSC[C@@H](C(=O)N[C@@H](CCN)C(=O)NCCOCCOCC(=O)NCCCCCCCCCCC(=O)O)NC(=O)[C@H](CCCN)NC(=O)[C@H](C(C)C)NC(=O)[C@H](CC3CCCCC3)NC(=O)[C@H](CCN)NC(=O)[C@@H](CC(C)C)NC(=O)[C@H](CCCN)NC(=O)[C@H](C(C)C)NC(=O)[C@H](Cc3ccc(-c4ccccc4)cc3)NC(=O)[C@H](C(C)C)NC2=O)c1 [Compound 2551] ({CH2CO}-[Dap]Y(Carboxymethyl)D[Phe(3-Me)]V[Bip]V[Orn][dL][Dab][Cha]V[Orn]C[Dab][AEEA][Aun]-OH; thioether N-14)
8 | 7.34 | Cc1cccc(C[C@@H]2NC(=O)[C@H](CC(=O)O)NC(=O)[C@H](Cc3ccc(OCC(=O)O)cc3)NC(=O)CNC(=O)CSC[C@@H](C(=O)N[C@@H](CCN)C(=O)NCCCCCCCCCCC(=O)O)NC(=O)[C@H](CO)NC(=O)[C@H](C(C)(C)O)NC(=O)[C@H](CC3CCCCC3)NC(=O)[C@H](CCN)NC(=O)[C@@H](CC(C)C)NC(=O)[C@H](CCCN)NC(=O)[C@H](Cc3ccc(OCC(=O)O)cc3)NC(=O)[C@H](Cc3ccc(-c4ccccc4)cc3)NC(=O)[C@H](Cc3ccc(OCC(=O)O)cc3)NC2=O)c1 [Compound 2209] ({CH2CO}-GY(Carboxymethyl)D[Phe(3-Me)]Y(Carboxymethyl)[Bip]Y(Carboxymethyl)[Orn][dL][Dab][Cha][Val(3-OH)]SC[Dab][Aun]-OH; thioether N-14)
9 | 7.58 | CCC(C)[C@@H]1NC(=O)[C@H](Cc2ccc(-c3ccccc3)cc2)NC(=O)[C@H](C(C)C)NC(=O)[C@H](Cc2c[nH]c3ccccc23)NC(=O)[C@H](CC(=O)O)NC(=O)[C@H](Cc2ccc(OCC(=O)O)cc2)NC(=O)[C@H]([C@H](C)O)NC(=O)CSC[C@@H](C(=O)NCCOCCOCC(=O)N[C@@H](CCCCN)C(=O)NCCCCCCCCCCC(=O)O)NC(=O)[C@H](CO)NC(=O)[C@H](C(C)C)NC(=O)[C@H](CC(C)C)NC(=O)[C@H](CCN)NC(=O)[C@@H](CC(C)C)NC(=O)[C@H](CCCN)NC1=O (stereo partly drawn) [Compound 3083] ({CH2CO}-[aThr]Y(Carboxymethyl)DWV[Bip][Ile(3ξ)][Orn][dL][Dab]LVSC[AEEA]K[Aun]-OH; thioether N-14)
